Results as given in patent publication US7056940B2, “Insecticidal 3-(2,6-disubstituted phenyl)-5-[5-arylthien-2-yl]-1,2,4-triazoles” (Dow AgroSciences LLC, priority 2001, dated 2006).

tested on: Tobacco Budworm (Heliothis virescens); test: Insecticidal test for tobacco budworm, treated cotton cotyledon leaf disc; assay type: in vivo; design: key: A: 90–100; B: 80–89; C: 70–79; D: 60–69; E: 50–59; F: less than 50; G: Inactive; conditions: cotton cotyledon leaf-dip, 2nd instar larvae, 5 days
Source text: (§1) The compounds are useful for reducing populations of insects and mites and are useful in a method of inhibiting an insect or mite population which comprises applying to a locus of the insect or mite an effective insect- or mite-inactivating amount of a compound of formula (1). The “locus” of insects or mites is a term used herein to refer to the environment in which the insects or mites live or where their eggs are present, including the air surrounding them, the food they eat, or objects which they contact. For example, insects or mites which eat or contact edible or ornamental plants can be controlled by applying the active compound to plant parts such as the seed, seedling, or cutting which is planted, the leaves, stems, fruits, grain, or roots, or to the soil in which the roots are growing. It is contemplated that the compounds might also be useful to protect textiles, paper, stored grain, seeds, domesticated animals, buildings or human beings by applying an active compound to or near such objects. The term “inhibiting an insect or mite” refers to a decrease in the numbers of living insects or mites, or a decrease in the number of viable insect or mite eggs. The extent of reduction accomplished by a compound depends, of course, upon the application rate of the compound, the particular compound used, and the target insect or mite species. At least an inactivating amount should be used. The terms “insect-inactivating amount” and “mite-inactivating amount” are used to describe the amount, which is sufficient to cause a measurable reduction in the treated insect or mite population. Generally an amount in the range from about 1 to about 1000 ppm by weight active compound is used. For example, insects and mites which can be inhibited include, but are not limited to: • Lepidoptera—Heliothis spp., Helicoverpa spp., Spodoptera spp., Mythimna unipuncta, Agrotis ipsilon, Earias spp., Euxoa auxiliaris, Trichoplusia ni, Anticarsia gemmatalis, Rachiplusia nu, Plutella xylostella, Chilo spp., Scirpophaga incertulas, Sesamia inferens, Cnaphalocrocis medinalis, Ostrinia nubilalis, Cydia pomonella, Carposina niponensis, Adoxophyes orana, Archips argyrospilus, Pandemis heparana, Epinotia aporema, Eupoecilia ambiguella, Lobesia botrana, Polychrosis viteana, Pectinophora gossypiella, Pieris rapae, Phyllonorycter spp., Leucoptera malifoliella, Phyllocnisitis citrella • Coleoptera—Diabrotica spp., Leptinotarsa decemlineata, Oulema oryzae, Anthonomus grandis, Lissorhoptrus oryzophilus, Agriotes spp., Melanotus communis, Popillia japonica, Cyclocephala spp., Tribolium spp. • Homoptera—Aphis spp., Myzus persicae, Rhopalosiphum spp., Dysaphis plantaginea, Toxoptera spp., Macrosiphum euphorbiae, Aulacorthum solani, Sitobion avenae, Metopolophium dirhodum, Schizaphis graminum, Brachycolus noxius, Nephotettix spp., Nilaparvata lugens, Sogatella furcifera, Laodelphax striatellus, Bemisia tabaci, Trialeurodes vaporariorum, Aleurodes proletella, Aleurothrixus floccosus, Quadraspidiotus perniciosus, Unaspis yanonensis, Ceroplastes rubens, Aonidiella aurantii • Hemiptera—Lygus spp., Eurygaster maura, Nezara viridula, Piezodorus guildingi, Leptocorisa varicornis • Thysanoptera—Frankliniella occidentalis, Thrips spp., Scirtothrips dorsalis • Isoptera—Reticulitermes flavipes, Coptotermes formosanus • Orthoptera—Blattella germanica, Blatta orientalis, Gryllotalpa spp. • Diptera—Liriomyza spp., Musca domestica, Aedes spp., Culex spp., Anopheles spp. • Hymenoptera—Iridomyrmex humilis, Solenopsis spp., Monomorium pharaonis, Atta spp., Pogonomyrmex spp., Camponotus spp. • Siphonaptera—Ctenophalides spp., Pulex irritans • Acarina—Tetranychus spp., Panonychus spp., Eotetranychus carpini, Phyllocoptruta oleivora, Aculus pelekassi, Brevipalpus phoenicis, Boophilus spp., Dermacentor variabilis, Rhipicephalus sanguineus, Amblyomma americanum, Ixodes spp., Notoedres cati, Sarcoptes scabiei, Dermatophagoides spp. […]

Row | Compound | TBW: activity at 400 ppm against tobacco budworm (% control rating)
1 | Cc1cc(-c2cccc(C(F)(F)F)c2F)sc1-c1nc(-c2c(F)cccc2Cl)nn1C | D (60–69)
2 | Cc1cc(-c2ccc3c(c2)COC3)sc1-c1nc(-c2c(F)cccc2Cl)nn1C | G
3 | COCCOc1cccc(-c2cc(C)c(-c3nc(-c4c(F)cccc4Cl)nn3C)s2)c1 | F (less than 50)
4 | Cc1cc(-c2ccc(OC(C)C)cc2)sc1-c1nc(-c2c(F)cccc2Cl)nn1C | G
5 | Cc1cc(-c2ccc(OC(F)(F)C(F)Cl)cc2)sc1-c1nc(-c2c(F)cccc2Cl)nn1C (centres unmarked) | A (90–100)
6 | Cc1c(-c2nc(-c3c(F)cccc3Cl)nn2C)csc1-c1ccc(SCF)cc1 | G
7 | Cc1sc(-c2ccc(C(F)(F)F)cc2F)c(C)c1-c1nc(-c2c(F)cccc2Cl)nn1C | G

tested on: Beet Armyworm (Spodoptera exigua); test: Insecticidal test for beet armyworm, treated lepidopteran diet; assay type: in vivo; conditions: on diet surface, second-instar larvae, 5 days
Source text: as §1

Row | Compound | BAW: activity at 400 ppm against beet armyworm (% control rating)
8 | Cc1cc(-c2cccc(C(F)(F)F)c2F)sc1-c1nc(-c2c(F)cccc2Cl)nn1C | A (90–100)
9 | Cc1cc(-c2ccc3c(c2)COC3)sc1-c1nc(-c2c(F)cccc2Cl)nn1C | B (80–89)
10 | COCCOc1cccc(-c2cc(C)c(-c3nc(-c4c(F)cccc4Cl)nn3C)s2)c1 | F (less than 50)
11 | Cc1cc(-c2ccc(OC(C)C)cc2)sc1-c1nc(-c2c(F)cccc2Cl)nn1C | D (60–69)
12 | Cc1cc(-c2ccc(OC(F)(F)C(F)Cl)cc2)sc1-c1nc(-c2c(F)cccc2Cl)nn1C (centres unmarked) | A (90–100)
13 | Cc1c(-c2nc(-c3c(F)cccc3Cl)nn2C)csc1-c1ccc(SCF)cc1 | B (80–89)
14 | Cc1sc(-c2ccc(C(F)(F)F)cc2F)c(C)c1-c1nc(-c2c(F)cccc2Cl)nn1C | A (90–100)

tested on: Cabbage Looper (Trichoplusia ni); test: Insecticidal test for cabbage looper, treated cabbage leaf disc; assay type: in vivo; design: key: A: 90–100; B: 80–89; C: 70–79; D: 60–69; E: 50–59; F: less than 50; G: Inactive; conditions: cabbage leaf-dip, 2nd instar larvae, 5 days
Source text: as §1

Row | Compound | CL: activity at 400 ppm against cabbage looper (% control rating)
15 | Cc1cc(-c2cccc(C(F)(F)F)c2F)sc1-c1nc(-c2c(F)cccc2Cl)nn1C | A (90–100)
16 | Cc1cc(-c2ccc3c(c2)COC3)sc1-c1nc(-c2c(F)cccc2Cl)nn1C | A (90–100)
17 | COCCOc1cccc(-c2cc(C)c(-c3nc(-c4c(F)cccc4Cl)nn3C)s2)c1 | G
18 | Cc1cc(-c2ccc(OC(C)C)cc2)sc1-c1nc(-c2c(F)cccc2Cl)nn1C | B (80–89)
19 | Cc1cc(-c2ccc(OC(F)(F)C(F)Cl)cc2)sc1-c1nc(-c2c(F)cccc2Cl)nn1C (centres unmarked) | A (90–100)
20 | Cc1c(-c2nc(-c3c(F)cccc3Cl)nn2C)csc1-c1ccc(SCF)cc1 | G
21 | Cc1sc(-c2ccc(C(F)(F)F)cc2F)c(C)c1-c1nc(-c2c(F)cccc2Cl)nn1C | A (90–100)

tested on: Cotton Aphid (Aphis gossypii); test: Insecticidal test for cotton aphid, spray on infested squash cotyledons; assay type: in vivo; conditions: 50 ppm spray, 3 days
Experimental: Insecticidal Test for Cotton Aphid (Aphis gossypii)
To prepare spray solutions, 1 mg of each test compound was dissolved into 1 mL of a 90:10 acetone:ethanol solvent. This 1 mL of chemical solution was added to 19 mL of water containing 0.05% Tween 20 surfactant to produce a 50 ppm spray solution.
Squash cotyledons were infested with cotton aphid (all life stages) 16–20 hours prior to application of spray solution. The solution was sprayed on both sides of each infested squash cotyledon (0.5 mL×2 each side) with a sweeping action until runoff. The plants were allowed to air dry and held for 3 days in a controlled room at 26° C. and 40% RH after which time the test was graded. Grading was by actual count using a dissecting microscope and comparison of test counts to the untreated check. Results are given in Tables 1–4 as percent control based on population reduction versus the untreated.

Row | Compound | CA: activity at 50 ppm against cotton aphid (% control rating)
22 | Cc1cc(-c2cccc(C(F)(F)F)c2F)sc1-c1nc(-c2c(F)cccc2Cl)nn1C | D (60–69)
23 | Cc1cc(-c2ccc3c(c2)COC3)sc1-c1nc(-c2c(F)cccc2Cl)nn1C | D (60–69)
24 | COCCOc1cccc(-c2cc(C)c(-c3nc(-c4c(F)cccc4Cl)nn3C)s2)c1 | B (80–89)
25 | Cc1cc(-c2ccc(OC(C)C)cc2)sc1-c1nc(-c2c(F)cccc2Cl)nn1C | D (60–69)
26 | Cc1cc(-c2ccc(OC(F)(F)C(F)Cl)cc2)sc1-c1nc(-c2c(F)cccc2Cl)nn1C (centres unmarked) | D (60–69)
27 | Cc1c(-c2nc(-c3c(F)cccc3Cl)nn2C)csc1-c1ccc(SCF)cc1 | B (80–89)
28 | Cc1sc(-c2ccc(C(F)(F)F)cc2F)c(C)c1-c1nc(-c2c(F)cccc2Cl)nn1C | B (80–89)

tested on: Two-spotted Spider Mite (Tetranychus urticae); test: Insecticidal test for two-spotted spider mite, ovicide method; assay type: in vivo; conditions: cotton leaf discs, 6 days
Experimental: Insecticidal Test for Two-spotted Spider Mite (Tetranychus urticae)
Ten adult female two-spotted spider mites were placed on eight 2.2 cm leaf discs of cotton leaf, allowed to oviposit over 24 hours, and thereafter removed. […] Discs were placed on an agar substrate and held at 24° C. and 90% RH for 6 days.

Row | Compound | SM: activity against two-spotted spider mite (% control rating)
29 | Cc1cc(-c2cccc(C(F)(F)F)c2F)sc1-c1nc(-c2c(F)cccc2Cl)nn1C | A (90–100)
30 | Cc1cc(-c2ccc3c(c2)COC3)sc1-c1nc(-c2c(F)cccc2Cl)nn1C | C (70–79)
31 | COCCOc1cccc(-c2cc(C)c(-c3nc(-c4c(F)cccc4Cl)nn3C)s2)c1 | C (70–79)
32 | Cc1cc(-c2ccc(OC(C)C)cc2)sc1-c1nc(-c2c(F)cccc2Cl)nn1C | A (90–100)
33 | Cc1cc(-c2ccc(OC(F)(F)C(F)Cl)cc2)sc1-c1nc(-c2c(F)cccc2Cl)nn1C (centres unmarked) | A (90–100)

tested on: Sweetpotato Whitefly (Bemisia tabacia); test: Insecticidal test for sweetpotato whitefly, spray on cotton plants; assay type: in vivo; design: key: A: 90–100; B: 80–89; C: 70–79; D: 60–69; E: 50–59; F: less than 50; G: Inactive; conditions: 200 ppm spray, 13 days, large nymphs
Experimental: Insecticidal Test for Sweetpotato Whitefly (Bemisia tabacia)
Four mg of each test compound was dissolved by adding 4 mL of a 90:10 acetone:ethanol solvent mixture to the vial containing the sample compound. This solution was added to 16 mL of water containing 0.05% Tween 20 surfactant to produce 20 mL of an 200 ppm spray solution.
Five-week-old cotton plants reared in a greenhouse were stripped of all foliage except for the two uppermost true leaves that were greater than 5 cm in diameter. These plants were then placed into a laboratory colony of whiteflies for two days for oviposition by the colony females. All whiteflies were then removed from the test plants with pressurized air. The spray solution was then applied to the test plants with a hand-held syringe fitted with hollow cone nozzle. One mL spray solution was applied to each leaf top and bottom for a total of 4 mL per plant. Four replications of each test compound utilized a total of 16 mL spray solution. Plants were air dried and then placed in a holding chamber (28° C. and 60% RH) for 13 days. Compound efficacy was evaluated by counting, under an illuminated magnifying glass, the number of large nymphs (3rd–4th instar) per leaf.
Percent control based on reduction of large nymphs of a test compound compared to solution-only (no test compound) sprayed plants is reported in Tables 1–4.

Row | Compound | WF: activity at 200 ppm against whitefly (% control rating)
34 | Cc1cc(-c2cccc(C(F)(F)F)c2F)sc1-c1nc(-c2c(F)cccc2Cl)nn1C | G
35 | Cc1cc(-c2ccc3c(c2)COC3)sc1-c1nc(-c2c(F)cccc2Cl)nn1C | G
36 | COCCOc1cccc(-c2cc(C)c(-c3nc(-c4c(F)cccc4Cl)nn3C)s2)c1 | G
37 | Cc1cc(-c2ccc(OC(F)(F)C(F)Cl)cc2)sc1-c1nc(-c2c(F)cccc2Cl)nn1C (centres unmarked) | F (less than 50)
38 | Cc1c(-c2nc(-c3c(F)cccc3Cl)nn2C)csc1-c1ccc(SCF)cc1 | F (less than 50)
